Results from patent US9597407B2, “Targeted antimicrobial moieties” (C3 Jian, Inc., priority 2009, dated 2017).
“Also recorded” adds a separate entry of the source. Ends that are not written are not given here.

How the values were obtained:
microorganisms [1] = assay: Morphology, biofilm and growth disruption by peptides (Table 5); format: cell-based; set-up: key: A: Peptide aggregates; B: Less hyphal formation; Clumps; Diffuse clumps and small polyps; F: Diffuse growth; H: Thin; I: Growth inhibition; Microcolony formation; Rippled; Small polyps; Thick; W: Halo formation on top, microlonies on bottom
Description: In certain embodiments peptides that induce alterations in phenotype or other biological activities can also be used as antimicrobial effector moieties.

microorganisms [2] = assay: Peptide activities: binding, antimicrobial, growth or phenotype altering (Table 8)
Description: In certain embodiments, peptides described herein can have multiple activities. Thus for example, a peptide can have both binding/targeting activity and antimicrobial activity. Such peptides can be used, e.g., in a chimeric construct, for any or all of these properties. Thus, for example, a peptide designated “B” in Table 8 can be used as a targeting peptide. If it is also designated G or M it can also be used for antimicrobial activity.

bacteria = assay: Binding of targeting peptides to microorganisms (Table 3); conditions: preferably 1x PBS
[3] = peptide binding in aqueous buffers that varied depending on peptide solubility
[4] = microorganism the targeting peptide binds, binding in aqueous buffers that varied with peptide solubility

Substance | Organism, effect (morphology, biofilm and growth disruption) (microorganisms [1]; S. pneumoniae) | Activities (microorganisms [2]) | Target(s) (microorganisms bound by the targeting peptide) (bacteria; [3]) | Organism, effect (microorganisms [1]; MRSA) | other results
PF-518 (SFYSKYSRYIDNLAGAIFLFF; Peptide with targeting and/or antimicrobial activity) | S. pneumoniae (M) | G B | S. epidermidis and E. coli and P. aeruginosa and C. albicans and MRSA and S. pneumoniae and E. faecalis |  | Organism, effect (morphology, biofilm and growth disruption) (microorganisms [1]; E. coli): E. coli (R); Organism, effect (morphology, biofilm and growth disruption) (microorganisms [1]; E. faecalis): E. faecalis (C); Organism, effect (morphology, biofilm and growth disruption) (microorganisms [1]; MRSA): MRSA (C); Organism, effect (morphology, biofilm and growth disruption) (microorganisms [1]; S. epidermidis): S. epidermidis (C)
PF-462 (KNKTDTL; Peptide with targeting and/or antimicrobial activity) | S. pneumoniae (H) | G B | E. faecalis; also recorded: C. jeikeium |  | 
PF-573 (EKKLIVKLIDSIGKSHEEIVGAG; Peptide with targeting and/or antimicrobial activity) | S. pneumoniae (C) | G B | S. epidermidis; also recorded: S. pneumoniae |  | 
PF-026 (SIHFIN; Peptide with targeting and/or antimicrobial activity) |  | G B |  | MRSA (M) | Target(s) (bacteria; [4]): S. epidermidis and M. luteus and P. mirabilis and C. albicans and MRSA and E. faecalis and C. jeikeium
PF-540 (KSILILIKVIFIGQTTIIL; Peptide with targeting and/or antimicrobial activity) | S. pneumoniae (R) | G B | C. albicans |  | Organism, effect (morphology, biofilm and growth disruption) (microorganisms [1]; E. coli): E. coli (R); Organism, effect (morphology, biofilm and growth disruption) (microorganisms [1]; MRSA): MRSA (H); Organism, effect (morphology, biofilm and growth disruption) (microorganisms [1]; S. epidermidis): S. epidermidis (H)
PF-464 (VDMVNRFLGN; Peptide with targeting and/or antimicrobial activity) | S. pneumoniae (S) | G B | S. epidermidis and C. albicans and MRSA and S. pneumoniae and E. faecalis and C. jeikeium and C. jejuni |  | 
PF-C061 (TLNYKKMFFSVIFLLGLNYLICNSPLFFKQIEF; Peptide with targeting and/or antimicrobial activity) |  | G B |  |  | Organism, effect (morphology, biofilm and growth disruption) (microorganisms [1]; F. nucleatum): F. nucleatum (T); Organism, effect (morphology, biofilm and growth disruption) (microorganisms [1]; S. mutans): S. mutans (F); Target(s) (microorganism bound by the targeting peptide) (bacteria; [3]): A. naeslundii; also recorded: F. nucleatum; also recorded: P. gingivalis; also recorded: S. mutans; also recorded: T. denticola
PF-035 (SFYESY; Peptide with targeting and/or antimicrobial activity) |  | G B |  | MRSA (M) | Target(s) (bacteria; [4]): S. epidermidis and M. luteus and E. coli and C. albicans and MRSA and C. jeikeium and C. jejuni
PF-363 (SMLSVTVMCLMHASVAANQAMEKKV; Peptide with targeting and/or antimicrobial activity) |  | G B |  | MRSA (H) | Organism, effect (microorganisms [1]; C. jejuni): C. jejuni (D); Organism, effect (microorganisms [1]; E. coli): E. coli (C); Organism, effect (microorganisms [1]; E. faecalis): E. faecalis (D); Organism, effect (microorganisms [1]; S. epidermidis): S. epidermidis (S); Organism, effect (microorganisms [1]; S. pneumoniae): S. pneumoniae (R); Target(s) (bacteria; microorganism bound by the targeting peptide, binding in aqueous buffers chosen by peptide solubility): B. subtilis; also recorded: E. coli; also recorded: P. aeruginosa; also recorded: C. albicans; also recorded: S. pneumoniae; also recorded: E. faecalis
PF-513 (SNGVGLGVGIGSGIRF-NH2) | S. pneumoniae (M) | G B | C. albicans |  | 
